From PubChem BioAssay (NCI)
Several values for one entry are separate records, joined by “and”; a condition that tells them apart may be missing. Identical values can stand only once.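 Results reflect a 48-hour exposure of cells in 96-well plates to compound at five concentrations. GI50 = concentration required for 50% inhibition of growth. TGI is the concentration that stops growth completely.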

What was measured:
Assay in all cases: NCI anticancer screen, dose series, 48 h
SR leukemia = tested on: SR leukemia
OVCAR-3 ovarian = tested on: OVCAR-3 ovarian
HL-60(TB) leukemia = tested on: HL-60(TB) leukemia
HOP-62 NSCLC = tested on: HOP-62 NSCLC
NCI/ADR-RES ovarian = tested on: NCI/ADR-RES ovarian
A549 NSCLC = tested on: A549 NSCLC
BT-549 breast = tested on: BT-549 breast
SF-268 CNS = tested on: SF-268 CNS
UACC-62 melanoma = tested on: UACC-62 melanoma
SN12C renal = tested on: SN12C renal

Structure (SMILES) | TGI (SR leukemia) | TGI (OVCAR-3 ovarian) | TGI (HL-60(TB) leukemia) | TGI (HOP-62 NSCLC) | TGI (NCI/ADR-RES ovarian) | TGI (A549 NSCLC) | TGI (BT-549 breast) | TGI (SF-268 CNS) | TGI (UACC-62 melanoma) | TGI (SN12C renal) | GI50 (SR leukemia) | GI50 (OVCAR-3 ovarian) | GI50 (HL-60(TB) leukemia) | GI50 (HOP-62 NSCLC) | GI50 (NCI/ADR-RES ovarian) | GI50 (A549 NSCLC) | GI50 (BT-549 breast) | GI50 (SF-268 CNS) | GI50 (UACC-62 melanoma) | GI50 (SN12C renal)
Cc1c2cc[n+](C)cc2c(C)c2c1sc1ccccc12 | 9.54 µM | 5.43 µM | 28.4 µM | 1.76 µM | > 100 µM | 3.46 µM | 1.37 µM | 1.14 µM | 4.25 µM | 0.747 µM |  |  |  |  |  |  |  |  |  | 
Cc1ccc([N+](=O)[O-])cc1NC(=O)Nc1cccc(F)c1 | 64.6 µM | 11.7 µM | > 100 µM | 43 µM | > 100 µM | 26.2 µM | > 100 µM | > 100 µM | > 100 µM | > 100 µM | 5.63 µM | 3.25 µM | 4.02 µM | 9.77 µM | 3.37 µM | 3.42 µM | 45.1 µM | 6.9 µM | 4.55 µM | 5.18 µM
CCN(CC)CCOCC[C@H]1CC[C@H]2[C@@H]3[C@H](C)Cc4cc(OS(N)(=O)=O)ccc4[C@H]3CC[C@]12C | 1.42 µM | 2.46 µM | 3.87 µM | 2.88 µM | 3.87 µM | 5.58 µM | 3.99 µM | 2.66 µM |  | 2.86 µM | 0.329 µM | 1.21 µM | 1.64 µM | 1.43 µM | 1.57 µM | 1.8 µM | 1.67 µM | 1.31 µM |  | 1.19 µM
O=C1c2ccccc2-c2c1c1ccccc1c(=O)n2CCCCNCCCn1c2c(c3ccccc3c1=O)C(=O)c1ccccc1-2 | 0.0273 µM | 2.06 µM | 23.3 µM | 1.42 µM | 1.72 µM | 2.9 µM | 4.15 µM | 6.93 µM | 3.22 µM | 1.13 µM | 0.005 µM | 0.509 µM | 8.19 µM | 0.13 µM | 0.582 µM | 0.508 µM | 1.34 µM | 0.358 µM | 0.445 µM | 0.158 µM
COc1ccc2[nH]c(=O)c3c4ccccc4cn3c2c1 | 0.842 µM | 0.608 µM | 0.548 µM | 0.885 µM | 1.29 µM | 2.77 µM | 20.9 µM | 3.19 µM | 1.4 µM | 7.17 µM | 0.125 µM | 0.253 µM | 0.186 µM | 0.228 µM | 0.308 µM | 0.554 µM | 7.3 µM | 0.516 µM | 0.345 µM | 0.6 µM
CCSCC1CC(O)(c2ccccc2)C(c2ccccc2)C(c2ccc(Cl)cc2)O1 (stereo unspecified) | 5.99 µM | 4.2 µM | 8.28 µM | 3.6 µM | 5.34 µM | 3.63 µM | 3.63 µM | 5.56 µM | 3.01 µM | 3.13 µM | 2.15 µM | 1.74 µM | 4.08 µM | 1.85 µM | 1.97 µM | 1.61 µM | 1.76 µM | 2.1 µM | 1.4 µM | 1.52 µM
COc1ccc(C(=O)c2cc(OC)c(OC)c(OC)c2)cc1 | 4.49 µM | 0.283 µM | 13.2 µM | > 100 µM | > 100 µM | > 100 µM | > 100 µM | > 86.8 µM | > 9.77 µM | > 100 µM |  |  |  |  |  |  |  |  |  | 
COc1ccc(C2CC(c3cc(OC)c(OC)c(OC)c3)=NO2)cc1OCCCCOc1cc2c(cc1OC)C(=O)N1CCC[C@H]1C=N2 (stereo partly specified) | 3.26 µM | 3.96 µM | 4.54 µM | 3.43 µM | 37.5 µM | 5.68 µM | 3.54 µM | 4.16 µM | 2.85 µM | 3.31 µM | 1.12 µM | 1.94 µM | 1.9 µM | 1.68 µM | 6.95 µM | 2.33 µM | 1.23 µM | 1.89 µM | 1.52 µM | 1.58 µM
CCN1CCN(Cc2ccc(-c3cc4c(N[C@H](C)c5ccccc5)ncnc4[nH]3)cc2)CC1 | 6.17 µM and 4.92 µM | 20.9 µM and > 10 µM | 7.91 µM and > 10 µM | 18.3 µM and > 10 µM | 29.9 µM and > 10 µM | 13.1 µM and > 10 µM | 22.3 µM and > 10 µM | 18.7 µM and > 10 µM | 5.36 µM and > 10 µM | 15.5 µM and > 10 µM | 2.34 µM and 2.05 µM | 3.78 µM and 2.05 µM | 2.83 µM and 4 µM | 3.52 µM and 3.53 µM | 4.69 µM and 4.78 µM | 1.71 µM and 3.08 µM | 6.3 µM and > 10 µM | 2.43 µM and 4.11 µM | 2.09 µM and 3.75 µM | 0.278 µM and 2.12 µM
F | > 6870 µM | > 6870 µM | > 6870 µM | > 6870 µM | > 6870 µM | > 6870 µM | > 6870 µM | > 6870 µM | 3100 µM | > 6870 µM | > 6870 µM | > 6870 µM | 2360 µM | 2560 µM | 2530 µM | 2730 µM | 3050 µM | 3540 µM | 1550 µM | 3270 µM
O=[N+]([O-])c1ccc(S(=O)(=O)Cc2ccccc2)c([N+](=O)[O-])c1 | 6.03 µM | 2.57 µM | 4.03 µM | 9.13 µM | > 51.8 µM | 33.3 µM | 5.12 µM | 14.5 µM | 5.22 µM |  |  |  |  |  |  |  |  |  |  | 
O=C(O)C/C(=C\c1ccco1)C(=O)O | > 100 µM | > 100 µM | > 100 µM | > 100 µM | > 100 µM | > 100 µM | > 100 µM |  | > 100 µM | > 100 µM |  |  |  |  |  |  |  |  |  | 
